Source: patent publication US20250268860A1, “COMPOSITION FOR USE IN THE CUTANEOUS SYNTHESIS OF HYALURONIC ACID, IN AN IMMUNO-CUTANEOUS RESPONSE AND TO IMPROVE SKIN” (JR, priority 2021, published 2025)
Like-named read-outs stand apart in the source and are kept apart here.

Columns and labels:
[1] = system: Normal human epidermal keratinocytes (NHEK); assay: Preliminary test of cytotoxicity, WST-8 reduction and morphological observations; type: cell-based; settings: 72 h
Procedure: (§1) • Cell type: Normal human epidermal keratinocytes (NHEK), used at the third passage • Culture conditions: 37° C., 5% CO2 • Culture medium: Keratinocyte-SFM optimized for the test, supplemented with Epidermal Growth Factor and pituitary extract
• Cell type: NHEK in culture medium • Incubation time: 72 hours • Evaluation parameters: WST-8 reduction and morphological microscopic observations.
At the end of the treatment, the cells were incubated in the presence of WST-8 (a highly water-soluble tetrazolium salt), reduced to a water-soluble, orange-colored product (formazan) by succinate dehydrogenase (a mitochondrial enzyme). This transformation is proportional to the number of living cells and their metabolic activity. The optical density (OD) was measured with a spectrophotometer at 450 nm (VERSAmax, Molecular Devices).
Percentage viability: viability (%)=(OD compound/OD control)×100

[2] = system: beta-defensin-2 (hBD-2); assay: hBD-2 release from keratinocytes, ELISA; type: cell-based, human; settings: for hBD-2 % control / hBD-2 Mean / hBD-2: 72 hours; for hBD-2: single values
Procedure: More specifically, the effect of these compounds was evaluated on the release of beta-defensin-2 (hBD -2) by Enzyme-Linked Immunosorbent Assay (ELISA). Prior to this, a preliminary cytotoxicity test was performed using a standard WST-8 reduction assay to determine the concentrations to be tested.
as §1
The keratinocytes were seeded in 96-well plates and cultured in culture medium for 24 hours. The medium was then replaced with culture medium containing or not (control) the compounds to be tested or the reference cytokine mixture (IL-17+IL-22+TNF-α at 5 ng/ml each). The cells were then incubated for 72 hours. All the experimental conditions were performed in n=3.
The inter-group comparisons were made using the unpaired bilateral Student's t-test. The statistical analyses can be interpreted if n>5; however for n<5, the calculated data are provided purely as a guide.

[3] = system: hyaluronic acid synthesis; assay: Hyaluronic acid assay (ELISA) in fibroblast culture supernatant; type: cell-based, human
Procedure: At confluence, the fibroblasts were trypsinized and seeded in 6-well plates at 0.08×10^6 cells per well in DMEMc 10% FCS. After 24 hours of culturing, the medium was replaced with DMEMc 1% FCS.
After 24 hours of culturing, 2 ml of medium with or without active agent were added. The active agents were diluted to the concentrations chosen following cytotoxicity tests in DMEMc 1% FCS culture medium.
Aliquots were stored at −80° C. until assayed. The cell monolayers were washed with PBS and 500 μl of 0.1N NaOH were added. The cell lyzate was stored at −20° C. until protein assay.
The amount of hyaluronic acid in the various samples was determined by ELISA (Enzyme-Linked Immunosorbent Assay) using a TECO@kit. This kit is a sensitive sandwich assay which uses microplates coated with hyaluronic acid binding protein (HABP) and HRP-conjugated HABP binding protein for detection. The HRP-conjugated HABP binding protein binds to the hyaluronic acid contained in the sample, and then reacts with the substrate. The color intensity is proportional to the HA content of the sample.
100 μl of standard or 100 μl of sample diluted to 1:50 were added to each well. The plate was incubated for 2 hours at room temperature, with agitation. After washing the plate, 100 μl of HRBP-HRP conjugate were added to each well. The plate was incubated for 30 minutes at room temperature, with agitation. After washing the wells, 100 μl of TMB substrate were added. The plate was incubated for 30 minutes at room temperature, in the dark and with agitation. The reaction was stopped by adding 100 μl of stop solution per well. Optical density readings were immediately taken at 450 nm.
The calibration curve was plotted, representing OD as a function of hyaluronic acid concentration. A regression curve was then plotted and the amounts of hyaluronic acid contained in the samples were determined by means of the equation of this regression curve. The hyaluronic acid concentrations are expressed in ng/mg of protein.
A calibration range (0-2 mg/ml) was established using a solution of bovine serum albumin. 20 μl of each point of the calibration or sample range were placed in duplicate in the wells of a 96-well plate. 200 μl of Pierce reagent were added and the plate was incubated for 30 minutes at 37° C. The absorbance was read immediately at 550 nm (MultiSkan FC spectrophotometer, Thermo).
Significance is retained only when p<0.05.

[4] = system: Fibroblasts from healthy skin (FS)
Procedure: Fibroblasts from healthy skin (FS) are cultured from biopsies performed on a patient, on a skin explant derived from surgery and considered as surgical waste. The conventional explantation technique is used for fibroblast extraction. The explants are cultured in Dulbecco's modified Eagle's medium supplemented with 10% fetal calf serum (FCS), 40 mg/l gentamicin and 2 mg/l fungizone (DMEMc) at 37° C., in a humid atmosphere and in the presence of 5% CO2.
The study of cell viability in the presence of the active principles to be tested is performed by means of an MTT assay. MTT is a tetrazolium salt whose ring is transformed by mitochondrial dehydrogenases. The yellow substrate is transformed into a dark blue product by living cells, but not by dead cells or the culture medium. This colorimetric test allows the color intensity to be linked to the number of living cells. The absorbance at 550 nm is directly proportional to the number of living fibroblasts. Cytotoxicity occurs when the cell viability is less than 80% relative to the control.
The active agents in powder form were taken up in 100% DMSO so as to obtain the stock solutions. […] After 24 hours of culturing, the active principles to be tested were added. Twelve concentrations of each active principle were tested (n=10/concentration). The active agents were dissolved directly in the culture medium from the stock solutions. After 24 hours of culturing in the presence of the active agents, an MTT assay was performed.
Following the cytotoxicity results of the two active agents alone, a second cytotoxicity test was performed with the mixture. For each mixture, three concentrations were tested (n=10/concentration): • C1: highest concentration • C2: ½ dilution • C3: […]
The values are expressed as a percentage relative to the control, plus or minus the standard error of the distribution of the means (SEM). A one-factor analysis of variance is performed, followed if necessary by a Fisher test. Significance is retained only when p<0.05.

SMILES: O=C(O)[C@H]1O[C@@H](Oc2cc3oc(-c4ccccc4)cc(=O)c3c(O)c2O)[C@H](O)[C@@H](O)[C@@H]1O [GPCB09, baicalin]
- Viability Mean (%) ([1]; 0.0004 mg/mL): 99%
- Viability Mean (%) ([1]; 0.0012 mg/mL): 96%
- Viability Mean (%) ([1]; 0.0037 mg/mL): 87%
- Viability Mean (%) ([1]; 0.011 mg/mL): 66%
- Viability Mean (%) ([1]; 0.033 mg/mL): 35%
- Viability Mean (%) ([1]; 0.098 mg/mL): 21%
- Viability Mean (%) ([1]; 0.287 mg/mL): 19%
- Viability Mean (%) ([1]; 0.38 mg/mL): 1%
- effect on beta-defensin-2 release from human epidermal keratinocytes [2]: no effect
- hBD-2 % control ([2]; 0.0001%): <73 % control
- hBD-2 Mean ([2]; 0.0001%): <8 pg/mL
- hBD-2 ([2]; 0.0001%): <8 pg/mL
- hBD-2 % control ([2]; 0.0003%): <73 % control
- hBD-2 Mean ([2]; 0.0003%): <8 pg/mL
- hBD-2 ([2]; 0.0003%): <8 pg/mL
- hBD-2 % control ([2]; 0.001%): <73 % control
- hBD-2 Mean ([2]; 0.001%): <8 pg/mL
- hBD-2 ([2]; 0.001%): <8 pg/mL
- effect on HA content relative to a control test ([3]; 25 μM, FIG. 4): improve HA content
- increase of hyaluronic acid synthesis ([3]; tested alone, 25 μM, 48 hours, relative to control): about 30%
- Viability (%/Ctrl) ([4]; 0.5 μM, 24 hours): 99.82 %/Ctrl
- Viability (%/Ctrl) ([4]; 1.0 μM, 24 hours): 98.27 %/Ctrl
- Viability (%/Ctrl) ([4]; 5.0 μM, 24 hours): 101.92 %/Ctrl
- Viability (%/Ctrl) ([4]; 10.0 μM, 24 hours): 100.76 %/Ctrl
- Viability (%/Ctrl) ([4]; 50.0 μM, 24 hours): 86.65 %/Ctrl
- Viability (%/Ctrl) ([4]; 100.00 μM, 24 hours): 21.80 %/Ctrl
- decrease in cell viability relative to the control ([4]; 75 and 100 μM): very significant
- concentration causing a significant reduction in cell viability relative to the control ([4]; 24 hours, MTT): ≥ 50 µM
- maximum non-cytotoxic concentration retained ([4]; active agent alone): 25 µM

SMILES: O=C(/C=C/c1ccc(O)c(O)c1)O[C@@H]1C[C@](O)(C(=O)O)C[C@@H](O)[C@H]1O [GPCB07, chlorogenic acid]
- effect on beta-defensin-2 release from human epidermal keratinocytes [2]: no effect
- hBD-2 % control ([2]; 0.0033%): <73 % control
- hBD-2 Mean ([2]; 0.0033%): <8 pg/mL
- hBD-2 ([2]; 0.0033%): <8 pg/mL
- hBD-2 % control ([2]; 0.01%): <73 % control
- hBD-2 Mean ([2]; 0.01%): <8 pg/mL
- hBD-2 ([2]; 0.01%): <8 pg/mL
- hBD-2 % control ([2]; 0.03%): <73 % control
- hBD-2 Mean ([2]; 0.03%): <8 pg/mL
- hBD-2 ([2]; 0.03%): <8 pg/mL
- improvement of hyaluronic acid (HA) content of skin cells reported in Ref. 18 ([3]; 100 μM, FIG. 4): could not be reproduced
- decrease of hyaluronic acid synthesis ([3]; tested alone, 100 μM, 48 hours, relative to control): about 20%
- maximum non-cytotoxic concentration retained ([4]; female, human, 24 h): 100 µM
- Viability (%/Ctrl) ([4]; female, human, 24 h, 0.5 μM): 95.14 %/Ctrl
- Viability (%/Ctrl) ([4]; female, human, 24 h, 1 μM): 94.89 %/Ctrl
- Viability (%/Ctrl) ([4]; female, human, 24 h, 5 μM): 101.75 %/Ctrl
- Viability (%/Ctrl) ([4]; female, human, 24 h, 10 μM): 89.63 %/Ctrl
- Viability (%/Ctrl) ([4]; female, human, 24 h, 25 μM): 100.28 %/Ctrl
- Viability (%/Ctrl) ([4]; female, human, 24 h, 50 μM): 99.64 %/Ctrl
- Viability (%/Ctrl) ([4]; female, human, 24 h, 75 μM): 103.28 %/Ctrl
- Viability (%/Ctrl) ([4]; female, human, 24 h, 100 μM): 100.41 %/Ctrl
